According to the METLIN SMRT retention time set (Domingo-Almenara et al. 2019):

Assay: gradient 5% acetonitrile 3 min, to 50% in 2 min, to 85% in 15 min, held 3 min, 100 µL/min
Details: column: Zorbax Extend-C18 2.1 x 50 mm; eluents: water / acetonitrile, 0.1% formic acid
In short: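 The system's dead and dwell volumes were 40 μL and 900 μL, with a Zorbax Extend-C18 column (2.1 × 50 mm, 1.8 μm) run at 100 μL/min in water and acetonitrile containing 0.1% formic acid each. Pure standards were analyzed in mixtures of ~100 molecules by HPLC–quadrupole time-of-flight mass spectrometry in positive and negative ionization mode. Retention time was assigned from computationally picked, manually inspected adduct peaks.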

Row | Structure (SMILES) | RP-LC retention time
1 | COC(=O)c1ccc2c(=O)n(-c3ccc(C)c(F)c3)c(N3CCCC3)nc2c1 | 1020 s
2 | CN1C[C@@H](CO)C=C2c3cccc4[nH]cc(c34)C[C@@H]21 | 607 s
3 | NC(=O)C1CCN(S(=O)(=O)c2ccc(N3C(=O)CCS3(=O)=O)cc2)CC1 | 622 s
4 | COc1ccc(CC(=O)N(C)C2CCN(c3nccnc3OC)C2)cc1 (stereo unspecified) | 684 s
5 | COc1cc(NC(=O)C2CCCN(c3nc(C)nc4oc(C)c(C)c34)C2)cc(OC)c1 (stereo unspecified) | 915 s
6 | COCCNc1c(-c2cccc(F)c2)nc2sc(C(=O)NC3CCCC3)c(C)n12 | 917 s
7 | CNc1ccc2oc(C[C@H]3O[C@@]4(CC[C@H]3C)O[C@H]([C@H](C)C(=O)c3ccc[nH]3)[C@H](C)C[C@H]4C)nc2c1C(=O)O | 1030 s
8 | COc1cc(NC(=O)C2CCCN(c3ncnc4c3nc3n4CCCCC3)C2)cc(OC)c1OC (stereo unspecified) | 720 s
9 | CC1(C)NC(=O)N(CCC(=O)N2CCC(c3nc(C4CCOCC4)no3)C2)C1=O (stereo unspecified) | 604 s
10 | Cc1noc2nc(C)n(CC(=O)NCc3cccc(F)c3)c(=O)c12 | 740 s
11 | COc1ccc(OC)c(CNC(=O)c2cc3c(=O)n(C)ccc3n2C)c1 | 692 s
12 | CCCCC(=O)N1c2nc(-c3ccc(F)cc3)nn2C2(CCCCC2)[C@@H]2CCCC[C@@H]21 | 1210 s
13 | CCOC(=O)c1c(S(=O)(=O)N2CCC(C(=O)NCc3ccc(C)cc3)CC2)c(C)n(CC)c1C | 895 s
14 | CCNC(=O)C1CCCN(c2nc3ncn(CC(=O)Nc4ccc(F)c(F)c4)c(=O)c3s2)C1 (stereo unspecified) | 670 s
15 | Cc1noc(C2CC3(CCN(C(=O)C4(c5ccccc5)CC4)CC3)CN2C)n1 (stereo unspecified) | 631 s
16 | CC1CCc2nn(CC(=O)NCCN3CCCCCC3)cc2C1 (stereo unspecified) | 605 s
17 | CCCS(=O)(=O)N1CCCC(Cc2noc(-c3cnccn3)n2)C1 (stereo unspecified) | 764 s
18 | CCc1ccc(CN2C(=O)CN(S(C)(=O)=O)CC2(C)C(=O)NC2CCCCCCC2)cc1 (stereo unspecified) | 1040 s
19 | O=C(c1ccc(-c2ccsc2)nc1)N1CCCCC1 | 792 s
20 | COc1cc(-c2noc(Cn3ccn(-c4ccccc4)c(=O)c3=O)n2)cc(OC)c1OC | 749 s
21 | O=C(NCCn1nc(-c2cccs2)ccc1=O)c1ccc2ncsc2c1 | 629 s
22 | COc1ccc(S(=O)(=O)N2CCCC(C(=O)N3CCCC3)C2)cc1C (stereo unspecified) | 806 s

Row | Structure (SMILES) | RP-LC retention time
23 | O=C(Cc1ccc(Cl)cc1)N1CCN(c2nc(CN3CCOCC3)cs2)CC1 | 642 s
24 | COc1cc(C(=O)NC2CCCNC2)cc(OC)c1OC (stereo unspecified) | 621 s
25 | CCCCN(C)c1ccc(NC(=O)CC(C)C)c(C(=O)O)c1 | 729 s
26 | O=C(O)c1ccc(-c2ccc(N3CCCCCC3)nc2)cc1 | 623 s
27 | Cc1ccc(S(=O)(=O)N2CCCOC2CNC(=O)C(=O)NCCCn2ccnc2)cc1 (stereo unspecified) | 558 s
28 | Cc1cc(C)nc(Nc2nc3ccccc3[nH]2)n1 | 615 s
29 | O=S(=O)(NCc1cccnc1)c1ccc(Cl)cc1 | 566 s
30 | NC(=O)c1cc(-c2ccccc2)n[nH]1 | 623 s
31 | Cn1c(C(=O)N2CCCC(C(=O)N3CCN(c4ccccn4)CC3)C2)cc2sccc21 (stereo unspecified) | 614 s
32 | Fc1cc(F)c2nc(NCc3ccco3)sc2c1 | 879 s
33 | CCc1cccc(NS(=O)(=O)c2cc3n(c2)CCN(CC(C)C)C3=O)c1 | 852 s
34 | O=C(NCCC1CCN(C(=O)Nc2ccccc2)CC1)c1ccoc1 | 704 s
35 | CCCN1C(=O)c2cccnc2Sc2cc(C(=O)N3CCC(C)CC3)ccc21 | 856 s
36 | Cc1noc(C2CN(C(=O)Nc3cc(Cl)ccc3C)CC23CCOCC3)n1 (stereo unspecified) | 760 s
37 | CC(C)OCCCNC(=O)c1nnc(-c2ccc(S(=O)(=O)N3CCCC3)cc2)o1 | 843 s
38 | O=C(CCCc1nc(-c2ccccc2)no1)Nc1nc(-c2ccccc2)cs1 | 1080 s
39 | Cc1nc(CCNC(=O)C2CCN(S(=O)(=O)c3cccc(C(F)(F)F)c3)CC2)cs1 | 776 s
40 | COc1cc(-c2nc(Nc3ccc(C)cc3)c3ccccc3n2)cc(OC)c1OC | 796 s
41 | CCCNC(=O)c1ncn2c1C(=O)N(C1CC1)C(C)(C(=O)NCc1ccccc1Cl)C2 (stereo unspecified) | 722 s
42 | Cc1ccc(-c2csc(Nc3ccccn3)n2)cc1 | 918 s
43 | O=C(c1nccc2ccccc12)N1CCC(OCC2CC2)C1 (stereo unspecified) | 722 s
44 | Cc1ccnc(Nc2nc(CC(=O)NCCc3cccs3)cs2)c1 | 581 s

Continued, values first:

Row | RP-LC retention time | Structure (SMILES)
45 | 714 s | COc1ccccc1CNC(=O)C1CCN(S(=O)(=O)c2ccc3[nH]c(=O)ccc3c2)CC1
46 | 724 s | Cc1nnc2ccc(S(=O)(=O)Nc3cccc(Cl)c3)cn12
47 | 603 s | O=C(NCCN1CCOCC1)C1c2ccccc2CC(=O)N1Cc1ccccc1 (stereo unspecified)
48 | 1040 s | COc1ccc(-c2nc3cnccn3c2Nc2ccc(C(C)C)cc2)cc1
49 | 944 s | O=S(=O)(c1cccn2c(SCc3ccc(F)cc3)nnc12)N1CCc2ccccc2C1
50 | 697 s | CCc1ccc(CNC(=O)c2ccc3ncnc(N4CCCC4)c3c2)cc1
51 | 699 s | COc1ccc(CNS(=O)(=O)c2ccc3c(c2)CCCC(=O)N3)cc1
52 | 633 s | Cc1ccc(-n2c(N3CCCC(C(=O)NC(C)c4cccnc4)C3)nc3ccsc3c2=O)cc1 (stereo unspecified)
53 | 826 s | CCN1CCn2cc(S(=O)(=O)N3CCN(c4ccccc4F)CC3)cc2C1=O
54 | 744 s | O=C(Cc1csc2nc(-c3ccccc3)cn12)NCc1ccc2c(c1)OCO2
55 | 1090 s | COc1ccc(-n2c(=O)c3sccc3n(Cc3nc(-c4ccc(C)c(C)c4)no3)c2=O)cc1
56 | 1120 s | CCc1ccc(-c2ccc(=O)n(CCc3nc(-c4ccc(F)cc4)no3)n2)cc1
57 | 1140 s | Cc1ccc(S(=O)(=O)Cc2ccc(-c3nc(-c4cccc(-c5ccnn5C)c4)no3)cc2)cc1
58 | 784 s | CCOc1ccccc1NC(=O)C1CCN(S(=O)(=O)c2cn(CC)cn2)CC1
59 | 1240 s | O=C(Nc1ccc(-c2nc(-c3ccc(Cl)cc3)no2)cc1)c1cccs1
60 | 839 s | CCn1cc(S(=O)(=O)N2CC(Oc3cccc(-c4nc(C)no4)c3)C2)cn1
61 | 784 s | O=C(Nc1cccc(OC(F)(F)F)c1)C1CCCN(c2nnc3ccccn23)C1 (stereo unspecified)
62 | 1190 s | Cc1ccc(N2CCN(C(=O)c3nnc(-c4ccc(S(=O)(=O)N5CCCC5)cc4)o3)CC2)c(C)c1
63 | 885 s | Cc1ccc(N2CCC(NC(=O)c3ccccc3C(F)(F)F)C2=O)cc1 (stereo unspecified)
64 | 979 s | CCC(c1cccs1)N1C(=O)[C@H]2CN(S(=O)(=O)c3ccc(F)cc3)C[C@H]2C1=O (stereo partly specified)
65 | 932 s | CN(c1ccc(F)cc1)S(=O)(=O)N1CCCC(C(=O)NCCc2c[nH]c3ccccc23)C1 (stereo unspecified)
66 | 1090 s | O=C(c1cccc2[nH]ccc12)N1CC(Oc2cccc(-c3nc(-c4ccccc4)no3)c2)C1
